The text below walks through data of ChEMBL document CHEMBL1140026 (Bioorg Med Chem Lett, 2007).

The target of the assay is cGMP-specific 3',5'-cyclic phosphodiesterase (Homo sapiens, UniProt O76074). Briefly: Inhibition of PDE5.

For the compound `CCCc1nn(C)c2c(=O)[nH]c(-c3cc(S(=O)(=O)N4CCN(C)CC4)cc4c3OCCO4)nc12`, the IC50 (in general, the point on the concentration scale where inhibition reaches its midpoint) was 7.94 nM.
For `CCCc1nn(C)c2c(=O)[nH]c(-c3cc(S(=O)(=O)N4CCN(CCO)CC4)cc4c3OCCC4)nc12` the value was 12.6 nM; for `CCCc1nn(C)c2c(=O)[nH]c(-c3cc(S(=O)(=O)N4CCC(CCC(=O)O)CC4)ccc3OCC)nc12`, 0.151 nM; for `CCCOc1ccc(S(=O)(=O)N2CCC(C(=O)O)CC2)cc1-c1nc2c(CCC)nn(C)c2c(=O)[nH]1`, 0.151 nM.
Compound `CCCOc1ccc(S(=O)(=O)N2CCC(CC(=O)O)CC2)cc1-c1nc2c(CCC)nn(C)c2c(=O)[nH]1` gave an IC50 of 0.11 nM.
In the case of `CCCc1nn(C)c2c(=O)[nH]c(-c3cc(S(=O)(=O)N4CCN(CCO)CC4)cc4c3OCC4)nc12`, inhibition was half-maximal at 204 nM (IC50). This IC50 is about 1900-fold higher than that of the compound before.
As for `CCCc1nn(C)c2c(=O)[nH]c(-c3cc(S(=O)(=O)N4CCN(CCC(=O)O)CC4)ccc3OCC)nc12`, the IC50 was 0.407 nM.
With `CCCc1nn(C)c2c(=O)[nH]c(-c3cc(S(=O)(=O)N4CCC(CC(=O)O)CC4)ccc3OCC)nc12`, the IC50 was 0.331 nM.
`CCCOc1ccc(NC(C)=O)cc1-c1nc2c(CCC)nn(C)c2c(=O)[nH]1` gave a half-maximal inhibitory concentration (IC50) of 0.813 nM.
The result for `CCCOc1ccc(NC(=O)C(C)C)cc1-c1nc2c(CCC)nn(C)c2c(=O)[nH]1` reads 0.347 nM; that for `CCCc1nn(C)c2c(=O)[nH]c(-c3cc(S(=O)(=O)N4CCN(C)CC4)cc4c3OCC4)nc12`, 240 nM.
`CCCc1nn(C)c2c(=O)[nH]c(-c3cc(S(=O)(=O)N4CCN(CCO)CC4)cc4c3OCCO4)nc12` had an IC50 of 6.31 nM.
`CCCOc1ccc(NC(=O)CCC)cc1-c1nc2c(CCC)nn(C)c2c(=O)[nH]1` showed a half-inhibitory concentration (IC50) of 0.269 nM. This IC50 lies about 23-fold lower than the previous one.
The result for `CCCc1nn(C)c2c(=O)[nH]c(-c3cc(S(=O)(=O)N4CCN(CCO)CC4)cc4c3OCO4)nc12` reads 331 nM; that for `CCCOc1ccc(NC(=O)C2CCCCC2)cc1-c1nc2c(CCC)nn(C)c2c(=O)[nH]1`, 0.417 nM; that for `CCCc1nn(C)c2c(=O)[nH]c(-c3cc(S(=O)(=O)N4CCC(C(=O)O)CC4)ccc3OCC)nc12`, 0.513 nM.
The result for `CCCc1nn(C)c2c(=O)[nH]c(-c3cc(S(=O)(=O)N4CCC(CCCC(=O)O)CC4)ccc3OCC)nc12` reads 0.219 nM; that for `CCCOc1ccc(S(=O)(=O)N2CCC(CCC(=O)O)CC2)cc1-c1nc2c(CCC)nn(C)c2c(=O)[nH]1`, 0.0501 nM; that for `CCCOc1ccc(S(=O)(=O)N2CCC(CCCC(=O)O)CC2)cc1-c1nc2c(CCC)nn(C)c2c(=O)[nH]1`, 0.501 nM.
Take `CCCOc1ccc(NC(=O)CC)cc1-c1nc2c(CCC)nn(C)c2c(=O)[nH]1`: the IC50 is 0.38 nM.
